{
  "source": "patent US10808018B2",
  "about": "“Erythropoietin-derived peptides and methods of protecting cells from oxidative damage induced by reactive oxygen species” (SYLUS CO., LTD., priority 2017, dated 2020)",
  "target": "T1, Soluble mouse EPOR chimera proteins (erythropoietin receptor) (Mus musculus, UniProt P14753)",
  "T1 construct": "Soluble mouse EPOR chimera proteins; purchased R&D Systems",
  "T1 sequence (P14753 25-249 limits assumed)": "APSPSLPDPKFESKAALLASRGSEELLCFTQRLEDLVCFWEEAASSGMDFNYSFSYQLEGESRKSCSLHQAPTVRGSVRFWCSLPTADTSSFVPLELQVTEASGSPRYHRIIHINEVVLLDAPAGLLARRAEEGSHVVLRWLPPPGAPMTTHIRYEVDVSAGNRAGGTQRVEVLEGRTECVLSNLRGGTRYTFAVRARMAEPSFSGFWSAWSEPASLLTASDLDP",
  "experiment": "Surface plasmon resonance (SPR) binding affinity to erythropoietin receptor",
  "details": "for Ka: association rate",
  "from_the_text": "The SPR technique is to measure interactions between biomolecules in real-time by using an optical principle without specific labeling, and is a system analyzing affinity between two molecules and kinetics, i.e., an association rate (Ka) and a dissociation rate (Kd). In detail, real-time SPR analysis may be performed using Reichert SPR Biosensor SR […] instrument (Reichert Inc., NY, USA). Soluble mouse EPOR chimera proteins (R&D Systems, Minneapolis, Minn., USA) were covalently linked to a carboxymethylated dextran matrix-coated chip (BR-1005-39, Pharmacia Biosensor AB) by an amine coupling procedure using an amine coupling kit (BR-1000-50, GE Healthcare, USA) in accordance with manufacturer's instructions. Each 5 pM, 2.5 pM, and 1.25 pM of the peptide samples of the present disclosure and scrambled peptides were applied at a flow rate of 5 μl/minute, and the experiments were independently performed in duplicate. For signal normalization, DMSO was applied at a flow rate of 5 μl/minute. After each binding cycle, the sensor chip was regenerated by injecting 25 mM of acetic acid at a flow rate of 20 μl/minute.",
  "note": "Peptide text beside a SMILES is read from it.",
  "data": [
    {"compound": "CC[C@H](C)[C@H](NC(=O)[C@H](CCSC)NC(=O)[C@H](C)NC(=O)[C@H](CC(C)C)NC(=O)[C@@H](NC(=O)[C@H](CCCNC(=N)N)NC(=O)[C@H](CC(C)C)NC(=O)CNC(=O)[C@H](C)NC(=O)[C@@H](NC(=O)[C@H](C)NC(=O)[C@H](CCCCN)NC(=O)[C@H](CC(C)C)NC(=O)[C@@H](NC(=O)[C@H](Cc1c[nH]cn1)NC(=O)[C@H](CC(C)C)NC(=O)[C@H](CCC(N)=O)NC(=O)[C@@H](N)CC(C)C)C(C)C)C(C)C)[C@@H](C)O)C(=O)N[C@@H](CCCNC(=N)N)C(=O)N[C@@H](CCCNC(=N)N)C(=O)N[C@@H](C)C(=O)N[C@@H](CC(C)C)C(=O)N[C@@H](C)C(=O)O", "note": "[ML1-H3] (H-LQLHVLKAVAGLRTLAMIRRALA-OH; N-terminus and C-terminus assumed)", "values": [
      {"measurement": "Ka", "setting": "Table 9", "value": 4157.6},
      {"measurement": "dissociation rate constant (koff)", "setting": "Table 9", "value": "4.77E−03"}
    ]},
    {"compound": "CC[C@H](C)[C@H](NC(=O)[C@H](CCSC)NC(=O)[C@@H](NC(=O)[C@H](CC(C)C)NC(=O)[C@@H](NC(=O)[C@H](CC(C)C)NC(=O)[C@H](CC(C)C)NC(=O)CNC(=O)[C@H](CO)NC(=O)[C@@H](NC(=O)[C@H](C)NC(=O)[C@H](CCCCN)NC(=O)[C@H](CC(C)C)NC(=O)[C@@H](NC(=O)[C@H](Cc1c[nH]cn1)NC(=O)[C@H](CC(C)C)NC(=O)[C@H](CCC(N)=O)NC(=O)[C@@H](N)CC(C)C)C(C)C)C(C)C)[C@@H](C)O)[C@@H](C)O)C(=O)N[C@@H](CCCNC(=N)N)C(=O)N[C@@H](CCCNC(=N)N)C(=O)N[C@@H](C)C(=O)N[C@@H](CC(C)C)C(=O)NCC(=O)O", "note": "[ML1-H2] (H-LQLHVLKAVSGLLTLTMIRRALG-OH; N-terminus and C-terminus assumed)", "values": [
      {"measurement": "Ka", "setting": "Table 9", "value": 3434.3},
      {"measurement": "dissociation rate constant (koff)", "setting": "Table 9", "value": "1.05E−03"}
    ]},
    {"compound": "CC(C)[C@H](NC(=O)[C@H](CCCNC(=N)N)NC(=O)[C@@H](N)[C@@H](C)O)C(=O)N[C@@H](CC(N)=O)C(=O)N[C@@H](Cc1ccc(O)cc1)C(=O)N[C@@H](CCC(N)=O)C(=O)N[C@@H](C)C(=O)N[C@@H](Cc1c[nH]c2ccccc12)C(=O)N[C@@H](CCCCN)C(=O)N[C@@H](CCCNC(=N)N)C(=O)O", "note": "[ML3-1] (H-TRVNYQAWKR-OH; N-terminus and C-terminus assumed)", "values": [
      {"measurement": "Ka", "setting": "Table 8", "value": "3.08 × 10^3"},
      {"measurement": "dissociation rate constant (koff)", "setting": "Table 8", "value": "1.3 × 10^−2"}
    ]},
    {"compound": "CC(C)C[C@H](NC(=O)[C@H](C)NC(=O)[C@H](CCCNC(=N)N)NC(=O)[C@H](CC(C)C)NC(=O)[C@H](CC(C)C)NC(=O)[C@@H](NC(=O)[C@@H](NC(=O)[C@H](CC(C)C)NC(=O)[C@H](CO)NC(=O)[C@H](CCCNC(=N)N)NC(=O)[C@H](CC(C)C)NC(=O)CNC(=O)[C@H](CO)NC(=O)[C@@H](NC(=O)[C@H](C)NC(=O)[C@H](CCCCN)NC(=O)[C@@H](N)CC(=O)O)C(C)C)[C@@H](C)O)[C@@H](C)O)C(=O)O", "note": "[ML8] (H-DKAVSGLRSLTTLLRAL-OH; N-terminus and C-terminus assumed)", "values": [
      {"measurement": "Ka", "setting": "Table 8", "value": "1.8 × 10^2"},
      {"measurement": "dissociation rate constant (koff)", "setting": "Table 8", "value": "0.8 × 10^−1"}
    ]},
    {"compound": "CC(C)C[C@H](NC(=O)CNC(=O)[C@H](C)NC(=O)[C@@H](NC(=O)[C@H](C)NC(=O)[C@H](CCCCN)NC(=O)[C@@H](N)CC(N)=O)C(C)C)C(=O)N[C@@H](CCCNC(=N)N)C(=O)N[C@@H](CO)C(=O)N[C@@H](CC(C)C)C(=O)N[C@H](C(=O)N[C@H](C(=O)N[C@@H](CC(N)=O)C(=O)O)C(C)C)[C@@H](C)O", "note": "[ML8-1] (H-NKAVAGLRSLTVN-OH; N-terminus and C-terminus assumed)", "values": [
      {"measurement": "dissociation rate constant (koff)", "setting": "Table 8", "value": "1.5 × 10^−1"}
    ]},
    {"compound": "CC(C)C[C@H](NC(=O)[C@H](CCC(=O)O)NC(=O)[C@H](CCCNC(=N)N)NC(=O)[C@H](CC(C)C)NC(=O)[C@H](CC(C)C)NC(=O)[C@H](CCCCN)NC(=O)[C@@H](NC(=O)[C@H](CC(C)C)NC(=O)[C@H](CO)NC(=O)[C@H](CCCNC(=N)N)NC(=O)[C@H](CC(C)C)NC(=O)CNC(=O)[C@H](CO)NC(=O)[C@H](CCC(=O)O)NC(=O)[C@H](C)NC(=O)[C@H](CCCCN)NC(=O)[C@H](CCC(N)=O)NC(=O)[C@@H](NC(=O)[C@H](Cc1c[nH]cn1)NC(=O)[C@@H](N)CCCNC(=N)N)C(C)C)[C@@H](C)O)C(=O)O", "note": "[ML2-1] (H-RHVQKAESGLRSLTKLLREL-OH; N-terminus and C-terminus assumed)", "values": [
      {"measurement": "Ka", "setting": "Table 8", "value": "3.1 × 10^2"},
      {"measurement": "dissociation rate constant (koff)", "setting": "Table 8", "value": "4.1 × 10^−3"}
    ]},
    {"compound": "CC[C@H](C)[C@H](NC(=O)[C@H](C)NC(=O)[C@H](CCC(=O)O)NC(=O)[C@H](CCCCN)NC(=O)[C@H](CCC(N)=O)NC(=O)[C@H](C)NC(=O)CNC(=O)[C@H](CC(C)C)NC(=O)[C@H](C)NC(=O)[C@H](CCCNC(=N)N)NC(=O)[C@H](CC(C)C)NC(=O)[C@H](CC(C)C)NC(=O)[C@@H](NC(=O)[C@@H](NC(=O)[C@H](CC(C)C)NC(=O)[C@H](CO)NC(=O)[C@H](CCCNC(=N)N)NC(=O)[C@H](CC(C)C)NC(=O)CNC(=O)[C@@H](N)CO)[C@@H](C)O)[C@@H](C)O)C(=O)O", "note": "[ML6]", "values": [
      {"measurement": "dissociation rate constant (koff)", "setting": "Table 8", "value": "4.5 × 10^−2"}
    ]},
    {"compound": "CC(C)C[C@H](NC(=O)CNC(=O)[C@@H](N)CO)C(=O)N[C@@H](CCCNC(=N)N)C(=O)N[C@@H](CO)C(=O)N[C@@H](CC(C)C)C(=O)N[C@H](C(=O)N[C@H](C(=O)N[C@@H](CC(C)C)C(=O)N[C@@H](CC(C)C)C(=O)N[C@@H](CCCNC(=N)N)C(=O)N[C@@H](C)C(=O)N[C@@H](CC(C)C)C(=O)NCC(=O)O)[C@@H](C)O)[C@@H](C)O", "note": "[ML5] (H-SGLRSLTTLLRALG-OH; N-terminus and C-terminus assumed)", "values": [
      {"measurement": "Ka", "setting": "Table 8", "value": "3.04 × 10^2"},
      {"measurement": "dissociation rate constant (koff)", "setting": "Table 8", "value": "0.1 × 10^−3"}
    ]},
    {"compound": "CC[C@H](C)[C@H](NC(=O)[C@H](CC(C)C)NC(=O)[C@@H](NC(=O)[C@@H](NC(=O)[C@H](CC(C)C)NC(=O)[C@@H](NC(=O)[C@H](CCCNC(=N)N)NC(=O)[C@H](CC(C)C)NC(=O)CNC(=O)[C@@H](NC(=O)[C@H](C)NC(=O)[C@H](C)NC(=O)[C@H](CCCCN)NC(=O)[C@H](CC(=O)O)NC(=O)[C@@H](NC(=O)[C@H](CCC(=O)O)NC(=O)[C@H](CC(C)C)NC(=O)[C@H](CC(=O)O)NC(=O)[C@H](CC(C)C)NC(=O)[C@H](C)NC(=O)[C@H](CCC(=O)O)NC(=O)[C@@H](N)CC(=O)O)C(C)C)[C@@H](C)O)[C@@H](C)O)[C@@H](C)O)[C@@H](C)O)C(=O)N[C@@H](CCCNC(=N)N)C(=O)N[C@@H](C)C(=O)N[C@@H](CC(C)C)C(=O)O", "note": "[ML7-1] (H-DEALDLEVDKAATGLRTLTTLIRAL-OH; N-terminus and C-terminus assumed)", "values": [
      {"measurement": "Ka", "setting": "Table 8", "value": "2.26 × 10^2"},
      {"measurement": "dissociation rate constant (koff)", "setting": "Table 8", "value": "1.44 × 10^−2"}
    ]},
    {"compound": "CC[C@H](C)[C@H](NC(=O)[C@H](C)NC(=O)[C@H](CCC(=O)O)NC(=O)[C@H](CCCCN)NC(=O)[C@H](CCC(N)=O)NC(=O)[C@H](C)NC(=O)CNC(=O)[C@H](CC(C)C)NC(=O)[C@H](C)NC(=O)[C@H](CCCNC(=N)N)NC(=O)[C@H](CC(C)C)NC(=O)[C@H](CC(C)C)NC(=O)[C@@H](NC(=O)[C@@H](NC(=O)[C@H](CC(C)C)NC(=O)[C@H](CO)NC(=O)[C@H](CCCNC(=N)N)NC(=O)[C@H](CC(C)C)NC(=O)CNC(=O)[C@H](CO)NC(=O)[C@@H](NC(=O)[C@H](C)NC(=O)[C@H](CCCCN)NC(=O)[C@@H](N)CC(=O)O)C(C)C)[C@@H](C)O)[C@@H](C)O)C(=O)O", "note": "[ML4] (H-DKAVSGLRSLTTLLRALGAQKEAI-OH; N-terminus and C-terminus assumed)", "values": [
      {"measurement": "Ka", "setting": "Table 8", "value": "2.2 × 10^2"},
      {"measurement": "dissociation rate constant (koff)", "setting": "Table 8", "value": "2.2 × 10^−3"}
    ]}
  ]
}
